According to US11220482B2, “Aminopyridinemethanol compounds and their use” (UNIVERSITE AMIENS PICARDIE JULES VERNE, priority 2017, dated 2022):
Read-outs that look alike come from different tables or passages of the source. Blank lines part the entries; values can stand above or below the compound they belong to.

Columns and labels:
P. falciparum 3D7 = test: P. falciparum growth inhibition assay, second round (SYBR Green I, ICEstimator); assay type: cell-based, Plasmodium falciparum
[1] = in vivo, cited from earlier work
Plasmodium falciparum W2 = test: Plasmodium falciparum susceptibility assay, first round (SYBR Green I); assay type: cell-based; settings: W2, first round, 48-h incubation, strain resistant to CQ, sensitive to MQ, read-out: IC50 (nM) Plasmodium falciparum W2 (converted)
CHO-K1 cells = test: In vitro micronucleus assay, short-term exposure; settings: short-term, with S9 mix, positive control 5 μg/mL
Protocol: All the assays were conducted in duplicate. The CHO-K1 cells, suspended in McCoy's 5A medium, were transferred into Labteck wells at a concentration of 100,000 cells/mL, and incubated for 24 hours at 37° C. in CO2 (5%).
When the test was performed without metabolic activation, the test substances were added into cell cultures at concentrations previously defined.
When the assay was performed in the presence of metabolic activation, S9 mix metabolizing mixture was added to cell cultures at a concentration of 10%. Then the test substances were added to the cell cultures at concentrations previously defined.
After 3 hours of incubation at 37° C. in CO2 (5%), the culture medium was removed, the cells were rinsed with phosphate buffered saline (PBS), and then returned to culture in McCoy's 5A medium containing […] of cytochalasin B. After a 21-hour incubation period at 37° C., cells were rinsed with phosphate buffered saline (PBS), fixed with methanol and stained with 10% Giemsa for 20 minutes.
The analysis of results was performed under a microscope at ×1000 magnification. The antiproliferative activity of test substances was estimated by counting the number of binucleated cells relative to the number of mononucleated cells on a total of 500 cells for each dose (250 cells counted per well). The proliferation index (Cytokinesis Blocked Proliferative Index CBPI) was calculated using the following formula:
The cytostasis index (CI %), i.e. the percentage of cell replication inhibition, was calculated using the following formula: CI %−100−{100×(CBPItest material−1)/(CBPIsolvent control−1)}
The rates of micronuclei were evaluated for the presence of independent nuclear core entities in 1000 binucleated cells per well, which corresponds to 2000 cells examined by test substance dose. Micronuclei were identified as small nuclei well differentiated from cell nucleus, stained in the same manner and having a diameter less than one third of that of the cell nucleus.
Micronuclei rates obtained for different doses of test substances were compared to the negative control by a χ2 test. The assay was considered positive if: • A dose-response relationship was obtained between the rate of micronuclei and the doses tested, • At least one of these doses induced a statistically significant increase (P<0.05) in the number of micronucleated cells as compared to the negative control.

[2] = system: Plasmodium falciparum 3D7; test: Plasmodium falciparum susceptibility assay, first round (SYBR Green I); assay type: cell-based; settings: 3D7, first round, 48-h incubation, strain susceptible to CQ, decreased susceptibility to MQ, read-out: IC50 (nM) Plasmodium falciparum 3D7 (converted)
[3] = Plasmodium falciparum, 3D7, 48 h
[4] = 48 h, read-out: IC50 (nM) Plasmodium falciparum 3D7 (converted)

Compound: CCCCN(CCCC)CC(O)c1cc(Cl)cc2c1-c1ccc(Cl)cc1/C2=C/c1ccc(Cl)cc1 (centres unmarked) [lumefantrine]
human t1/2 [1]: 3 to 4 days

Compound: OC(c1cc(C(F)(F)F)nc2c(C(F)(F)F)cccc12)C1CCCCN1 (racemic) [Mefloquine, mefloquine]
human t1/2 [1]: 2-4 weeks

Compound: C[C@@H]1CC[C@H]2[C@@H](C)C(=O)O[C@@H]3O[C@@]4(C)CC[C@@H]1[C@]32OO4 [Artemisinin]
human t1/2 [1]: 0.042 days

Compound: OC(c1cc(-c2ccc(C(F)(F)F)cc2)nc(C(F)(F)F)c1)C1CCCCN1 (racemic) [Enpiroline, reference compound]
IC50 (P. falciparum 3D7; [3]): 21.6 ± 1.43 nM | mean half-life [1]: 140 h

Compound: c1ccc2c(c1)cc1ccc3cccc4ccc2c1c34 [Benzo-a-pyrene, benzo-a-pyrene, reference compound]
BI (binucleated cells) (CHO-K1 cells): 475 | MNC1 (micronucleated cell rate) (CHO-K1 cells): 28 ‰ | MNC2 (micronucleated cell rate) (CHO-K1 cells): 25 ‰ | MNC-M (mean of micronucleated cell rates) (CHO-K1 cells): 26.5 ± 2.12 ‰ | MONO (mononucleated cells) (CHO-K1 cells): 25

Compound: OC(c1cc(C(F)(F)F)nc2c(C(F)(F)F)cccc12)C1CCCCN1 (centres unmarked) [MQ, Mefloquine, reference compound]
IC50 (P. falciparum 3D7; [3]): 32.3 ± 3.2 nM | IC50 [2]: 79.7 ± 8.5 nM | IC50 (Plasmodium falciparum W2): 31.8 ± 1 nM

Second part, the compound after the results:

IC50 (P. falciparum 3D7; [3]): 165 ± 21.9 nM
Compound: O[C@H](CN[C@H](COCC1CC1)Cc1ccccc1)c1ccc(-c2ccc(C(F)(F)F)cc2)nc1C(F)(F)F [Compound 30u, (S)-2-(((S)-1-(cyclopropylmethoxy)-3-phenylpropan-2-yl)amino)-1-(2-(trifluoromethyl)-6-(4-(trifluoromethyl)phenyl)pyridin-3-yl)ethan-1-ol]

IC50 (P. falciparum 3D7; [3]): 9.31 ± 2.16 nM
Compound: O[C@H](CN[C@H](COCC1CC1)Cc1ccccc1)c1cc(-c2ccc(C(F)(F)F)cc2)nc(C(F)(F)F)c1 [Compound 1u, (S)-2-(((S)-1-(cyclopropylmethoxy)-3-phenylpropan-2-yl)amino)-1-(2-(trifluoromethyl)-6-(4-(trifluoromethyl)phenyl)pyridin-4-yl)ethan-1-ol]

IC50 (P. falciparum 3D7; [4]): 39.3 ± 5.83 nM | IC50 (P. falciparum 3D7; [3]): < 50 nM
Compound: O[C@H](CNCCCC(F)(F)F)c1cc(-c2ccc(C(F)(F)F)cc2)nc(C(F)(F)F)c1 [Compound 1o, (S)-2-((4,4,4-trifluorobutyl)amino)-1-(2-(trifluoromethyl)-6-(4-(trifluoromethyl)phenyl)pyridin-4-yl)ethan-1-ol]

IC50 (P. falciparum 3D7; [3]): < 50 nM | IC50 (Plasmodium falciparum W2): 86.9 nM
Compound: O[C@@H](CNCCCN1CCN(C(c2ccccc2)c2ccccc2)CC1)c1cc(-c2ccc(C(F)(F)F)cc2)nc(C(F)(F)F)c1 [Compound 1n, (R)-2-((3-(4-benzhydrylpiperazin-1-yl)propyl)amino)-1-(2-(trifluoromethyl)-6-(4-(trifluoromethyl)phenyl)pyridin-4-yl)ethanol]

IC50 (P. falciparum 3D7; [3]): 896 nM
Compound: O[C@@H](CN[C@H](COCC1CC1)Cc1ccccc1)c1ccc(-c2ccc(C(F)(F)F)cc2)nc1C(F)(F)F [Compound 30v, (R)-2-(((S)-1-(cyclopropylmethoxy)-3-phenylpropan-2-yl)amino)-1-(2-(trifluoromethyl)-6-(4-(trifluoromethyl)phenyl)pyridin-3-yl)ethan-1-ol]

IC50 (P. falciparum 3D7; [4]): 31.4 nM | IC50 (P. falciparum 3D7; [3]): < 50 nM
Compound: O[C@H](CNCCCCCCF)c1cc(-c2ccc(C(F)(F)F)cc2)nc(C(F)(F)F)c1 [Compound 1q, (S)-2-((6-fluorohexyl)amino)-1-(2-(trifluoromethyl)-6-(4-(trifluoromethyl)phenyl)pyridine-4-yl)ethan-1-ol]

IC50 (P. falciparum 3D7; [4]): 43 nM | IC50 (P. falciparum 3D7; [3]): < 50 nM
Compound: O[C@@H](CNCCCC(F)(F)F)c1cc(-c2ccc(C(F)(F)F)cc2)nc(C(F)(F)F)c1 [Compound 1p, (R)-2-((4,4,4-trifluorobutyl)amino)-1-(2-(trifluoromethyl)-6-(4-(trifluoromethyl)phenyl)pyridin-4-yl)ethan-1-ol]

IC50 [2]: 97 ± 14 nM | IC50 (Plasmodium falciparum W2): 25.2 ± 1.2 nM
Compound: CCCCCCCNC[C@@H](O)c1ccc(-c2ccc(C(F)(F)F)cc2)nc1C(F)(F)F [Compound 30g, (S)-2-(Heptylamino)-1-(2-(trifluoromethyl)-6-(4-(trifluoromethyl)phenyl)pyridin-3-yl)ethanol]
